# Entries after “also recorded” stand apart in the source; their conditions may differ.
# Assays:
# [1] = target: DDB1∆B-CRBN_(Spy-BodipyFL), Q16531;Q96SW2; experiment: TR-FRET; settings: terbium-streptavidin 4 nM, read off a plot
# [2] = test system: SALL4; experiment: Western blot of SALL4: thalidomide with proteasome/NEDD8/UBA1 inhibitor co-treatment; settings: Kelly, HEK293T, SK-N-DZ cells; thalidomide + 5 µM bortezomib, 5 µM MLN4924 or 0.5 µM MLN7243, 24 h
# [3] = test system: IMiD-dependent targets; experiment: Rescue proteomics: pomalidomide with MLN4924 co-treatment in SK-N-DZ cells; settings: 1 µM pomalidomide + 5 µM MLN4924, 5 h
# [4] = target: IKZF1 (Homo sapiens, UniProt Q13422+Q96SW2); experiment: TMT proteomics MM1s cells: IKZF1 abundance; settings: 5 h vs DMSO, thalidomide 10 µM, lenalidomide 5 µM, pomalidomide 1 µM
# [5] = test system: RPS17; RPS17L; experiment: TMT proteomics H9 hESC: RPS17 abundance; type: cell-based, human; settings: H9 hES cells, 5 h vs DMSO; thalidomide 10 µM
# Excerpt: (§1) We established a mass spectrometry-based workflow (Figure 1—figure supplement 1A) to detect IMiD-induced protein degradation in hESC.
# (§2) Proteins were precipitated using methanol/chloroform.
# [6] = target: T1, ZFP91 (Homo sapiens, UniProt Q96JP5+Q96SW2); experiment: TMT proteomics Kelly cells: ZFP91 abundance; settings: 5 h vs DMSO, thalidomide 10 µM, lenalidomide 5 µM, pomalidomide 1 µM
# [7] = test system: chicken embryos; set-up: method as in Ito et al., 2010; settings: direct application to the limb buds, ref Ito et al., 2010; cited from earlier work
# [8] = target: IKZF3 (Homo sapiens, UniProt Q96SW2+Q9UKT9); experiment: TMT proteomics MM1s cells: IKZF3 abundance; settings: 5 h vs DMSO, thalidomide 10 µM, lenalidomide 5 µM, pomalidomide 1 µM
# [9] = 2013, cited from earlier work
# [10] = target: T2, VRTN (Homo sapiens, UniProt Q9H8Y1); experiment: TMT proteomics H9 hESC: VRTN abundance; type: cell-based; settings: H9 hES cells, 5 h vs DMSO; thalidomide 10 µM, pomalidomide 1 µM
# T2 construct: endogenous in cells; host or cells: H9 hESC
# T2 sequence (Q9H8Y1 whole entry): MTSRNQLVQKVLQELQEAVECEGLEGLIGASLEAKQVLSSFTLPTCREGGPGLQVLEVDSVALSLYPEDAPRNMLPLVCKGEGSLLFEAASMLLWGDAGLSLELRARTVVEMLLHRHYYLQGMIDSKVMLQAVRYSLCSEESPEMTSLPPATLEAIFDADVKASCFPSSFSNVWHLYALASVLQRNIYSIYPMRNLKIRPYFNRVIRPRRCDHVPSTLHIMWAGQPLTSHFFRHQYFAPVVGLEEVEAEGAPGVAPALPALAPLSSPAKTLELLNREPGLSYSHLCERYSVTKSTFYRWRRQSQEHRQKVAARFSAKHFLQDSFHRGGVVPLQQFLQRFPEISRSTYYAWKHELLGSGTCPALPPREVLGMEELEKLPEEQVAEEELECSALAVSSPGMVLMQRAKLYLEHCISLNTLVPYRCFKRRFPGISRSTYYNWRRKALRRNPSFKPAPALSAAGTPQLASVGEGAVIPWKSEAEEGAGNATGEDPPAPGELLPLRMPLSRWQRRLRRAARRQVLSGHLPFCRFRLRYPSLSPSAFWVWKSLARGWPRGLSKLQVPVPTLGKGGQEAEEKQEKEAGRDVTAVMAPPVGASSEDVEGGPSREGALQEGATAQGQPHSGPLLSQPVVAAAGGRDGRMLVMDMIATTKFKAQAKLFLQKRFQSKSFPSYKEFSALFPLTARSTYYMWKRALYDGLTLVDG
# Excerpt: as §1, §2
# [11] = target: T3, SALL4 (Homo sapiens, UniProt Q9UJQ4); experiment: Western blot of SALL4 in Kelly, SK-N-DZ, HEK293T and H661 cells; settings: increasing concentrations, 24 h
# [12] = test system: PPA1; experiment: TMT proteomics H9 hESC: PPA1 abundance; type: cell-based, human; settings: H9 hES cells, 5 h vs DMSO; thalidomide 10 µM, lenalidomide 5 µM
# Excerpt: as §1, §2
# [13] = test system: IMiD-dependent neo-substrates; experiment: TMT proteomics profiling of IMiD-dependent neo-substrates (hESC, Kelly, SK-N-DZ, MM1s); type: cell-based, human
# Excerpt: as §1, §2
# [14] = target: RAB28 (Homo sapiens, UniProt P51157); experiment: TMT proteomics MM1s cells: RAB28 abundance; settings: 5 h vs DMSO, thalidomide 10 µM, lenalidomide 5 µM, pomalidomide 1 µM
# [15] = test system: Flag-hsSALL4^G416A, Flag-hsSALL4^G416N; experiment: Western blot of transfected Flag-hsSALL4 G416A/G416N in Kelly cells; type: cell-based, human; settings: thalidomide, 24 h
# Procedure: (§3) For transient transfection, 0.2 million cells were seeded per well in a 12 well plate on day 1. On day 2, cells were transfected with 200–300 ng of plasmid (pNTM-Flag containing gene of interest) using 2 µL of lipofectamine 2000 transfection reagent (Invitrogen). On day 3, the desired concentration of IMiD was added to each well and cells were harvested after 24 h for western blot analysis using the protocol described above.
# [16] = test system: Flag-hsSALL4^G600A, hsSALL4^G600N; experiment: Western blot of transfected Flag-hsSALL4 G600A/G600N in Kelly cells; type: cell-based, human; settings: thalidomide, 24 h
# Procedure: as §3
# [17] = target: T3, SALL4; experiment: Western blot of SALL4 in H9 hESC; type: cell-based; set-up: endogenous in cells; host or cells: Kelly, H9 hESC, SK-N-DZ cells; settings: increasing doses, 24 h
# [18] = test system: zebrafish embryos; set-up: method as in Ito et al., 2010; settings: ref Ito et al., 2010; cited from earlier work
# [19] = target: Flag-mmSALL4 containing a humanized ZnF2 (Y415F, P418S, I419V, L430F, Q435H) (UniProt Q8BX22+Q96SW2, I419V/L434F/P418S/Q435H/Y415F); experiment: Western blot of Flag-mmSALL4 with humanized ZnF2 in Kelly cells; type: cell-based, mouse; settings: thalidomide, 24 h
# Procedure: as §3
# [20] = target: T3, SALL4; experiment: TMT proteomics Kelly cells: SALL4 abundance; settings: 5 h vs DMSO, thalidomide 10 µM, lenalidomide 5 µM, pomalidomide 1 µM
# [21] = target: T3, SALL4; experiment: TMT proteomics H9 hESC: SALL4 abundance; type: cell-based; settings: H9 hES cells, 5 h vs DMSO; thalidomide 10 µM, lenalidomide 5 µM, pomalidomide 1 µM
# Excerpt: as §1, §2
# [22] = target: T1, ZFP91; experiment: TMT proteomics MM1s cells: ZFP91 abundance; settings: 5 h vs DMSO, thalidomide 10 µM, lenalidomide 5 µM, pomalidomide 1 µM
# [23] = target: T4, mmSALL4 (Mus musculus, UniProt Q8BX22); experiment: Western blot of mmSALL4 in mouse embryonic stem cells; type: cell-based; settings: increasing concentrations, 24 h
# T4 construct: endogenous in cells; host or cells: TC1 mouse embryonic stem cells
# T4 sequence (Q8BX22 whole entry): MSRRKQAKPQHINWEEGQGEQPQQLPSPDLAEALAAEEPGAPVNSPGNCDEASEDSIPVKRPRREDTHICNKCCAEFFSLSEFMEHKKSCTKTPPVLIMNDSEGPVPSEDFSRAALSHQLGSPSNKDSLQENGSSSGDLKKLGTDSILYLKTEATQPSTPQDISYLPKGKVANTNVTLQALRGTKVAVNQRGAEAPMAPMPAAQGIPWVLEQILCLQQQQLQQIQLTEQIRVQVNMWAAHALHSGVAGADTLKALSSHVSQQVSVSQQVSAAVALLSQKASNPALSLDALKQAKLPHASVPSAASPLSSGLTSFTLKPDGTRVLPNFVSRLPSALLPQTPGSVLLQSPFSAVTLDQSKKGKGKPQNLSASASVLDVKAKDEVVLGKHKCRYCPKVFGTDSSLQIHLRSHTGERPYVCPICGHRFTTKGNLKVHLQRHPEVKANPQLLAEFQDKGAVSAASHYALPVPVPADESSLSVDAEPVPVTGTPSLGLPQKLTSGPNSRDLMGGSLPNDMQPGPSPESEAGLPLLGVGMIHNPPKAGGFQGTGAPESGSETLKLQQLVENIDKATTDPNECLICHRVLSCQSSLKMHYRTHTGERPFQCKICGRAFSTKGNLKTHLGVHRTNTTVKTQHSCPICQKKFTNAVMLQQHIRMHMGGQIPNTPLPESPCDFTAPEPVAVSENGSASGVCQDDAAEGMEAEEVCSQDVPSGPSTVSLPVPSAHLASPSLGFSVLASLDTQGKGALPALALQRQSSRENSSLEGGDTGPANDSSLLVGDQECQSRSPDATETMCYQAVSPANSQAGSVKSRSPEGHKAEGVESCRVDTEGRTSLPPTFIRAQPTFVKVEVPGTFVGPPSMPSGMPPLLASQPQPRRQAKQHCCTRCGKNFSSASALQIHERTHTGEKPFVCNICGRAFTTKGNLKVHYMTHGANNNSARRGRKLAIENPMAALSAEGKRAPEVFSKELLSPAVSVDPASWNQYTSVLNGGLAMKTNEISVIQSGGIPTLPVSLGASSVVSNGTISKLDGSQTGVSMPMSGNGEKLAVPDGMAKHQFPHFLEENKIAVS
# [24] = test system: PPP3R1; experiment: TMT proteomics MM1s cells: PPP3R1 abundance; type: cell-based, human; settings: 5 h vs DMSO, thalidomide 10 µM
# Excerpt: as §2
# [25] = target: ZNF692 (Homo sapiens, UniProt Q96SW2+Q9BU19); experiment: TMT proteomics Kelly cells: ZNF692 abundance; settings: 5 h vs DMSO, thalidomide 10 µM, lenalidomide 5 µM, pomalidomide 1 µM
# [26] = test system: SALL4 mRNA; experiment: Quantitative RT-PCR of total SALL4 mRNA in H9 hES cells; type: cell-based, human; settings: 10 µM thalidomide, 24 h vs DMSO
# Procedure: RNA was isolated using the RNeasy Plus mini kit (Qiagen) and cDNA created by reverse transcription using ProtoScript II reverse transcriptase (NEB) following the manufacturer’s instructions. The following primer sets from IDT were used with SYBR Green Master Mix (Applied Biosystems) to probe both GAPDH and total SALL4 levels:
# Analysis was performed on a CFX Connect Real-Time PCR System (Bio-Rad) in a white 96-well PCR plate. Relative expression levels were calculated using the ΔΔCT method.
# [27] = target: Flag-hsSALL4^WT (Homo sapiens, UniProt Q9UJQ4); experiment: Western blot of transfected Flag-hsSALL4 WT in Kelly cells; type: cell-based; settings: 24 h
# Flag-hsSALL4^WT, sequence (Q9UJQ4 whole entry): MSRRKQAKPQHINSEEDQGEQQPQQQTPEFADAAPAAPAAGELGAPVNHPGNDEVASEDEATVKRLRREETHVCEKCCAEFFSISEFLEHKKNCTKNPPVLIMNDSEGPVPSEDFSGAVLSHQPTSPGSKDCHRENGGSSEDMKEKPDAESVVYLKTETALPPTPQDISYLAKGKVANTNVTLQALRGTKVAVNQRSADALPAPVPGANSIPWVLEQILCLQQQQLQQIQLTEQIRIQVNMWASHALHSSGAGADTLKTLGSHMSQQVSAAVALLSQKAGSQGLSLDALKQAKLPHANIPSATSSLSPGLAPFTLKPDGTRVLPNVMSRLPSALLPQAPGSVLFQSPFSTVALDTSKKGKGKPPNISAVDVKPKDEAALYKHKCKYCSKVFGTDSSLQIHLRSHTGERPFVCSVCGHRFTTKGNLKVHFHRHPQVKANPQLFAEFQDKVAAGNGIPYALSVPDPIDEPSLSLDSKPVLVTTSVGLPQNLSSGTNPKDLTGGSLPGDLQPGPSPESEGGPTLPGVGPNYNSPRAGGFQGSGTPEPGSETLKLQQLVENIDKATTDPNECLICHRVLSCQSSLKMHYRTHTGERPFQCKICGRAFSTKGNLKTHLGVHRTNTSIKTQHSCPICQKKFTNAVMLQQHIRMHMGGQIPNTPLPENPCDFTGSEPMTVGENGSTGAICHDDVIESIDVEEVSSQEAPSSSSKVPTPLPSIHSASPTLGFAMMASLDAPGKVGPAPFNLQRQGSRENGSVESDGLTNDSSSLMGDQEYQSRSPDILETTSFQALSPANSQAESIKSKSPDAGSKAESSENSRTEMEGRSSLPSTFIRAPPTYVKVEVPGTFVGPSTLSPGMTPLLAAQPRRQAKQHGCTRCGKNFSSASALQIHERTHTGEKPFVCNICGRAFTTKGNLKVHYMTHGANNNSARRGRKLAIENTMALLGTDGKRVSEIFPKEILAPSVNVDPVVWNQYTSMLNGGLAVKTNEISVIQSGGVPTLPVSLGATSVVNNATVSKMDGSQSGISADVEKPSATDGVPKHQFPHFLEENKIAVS
# Procedure: as §3
# [28] = test system: SALL4; experiment: Western blot of SALL4 in CRBN-/- Kelly and HEK293T cells; type: cell-based, human; settings: increasing concentrations, 24 h
# [29] = test system: CYR61; experiment: TMT proteomics H9 hESC: CYR61 abundance; type: cell-based, human; settings: H9 hES cells, 5 h vs DMSO; thalidomide 10 µM
# Excerpt: as §1, §2
# [30] = target: hsSALL4ZnF2 / DDB1∆B-CRBN (Homo sapiens, UniProt Q96SW2+Q9UJQ4); experiment: TR-FRET IMiD-dependent binding of SALL4ZnF2 to CRBN; settings: DDB1∆B-CRBN 200 nM, hsSALL4ZnF2 100 nM
# Excerpt: The TR-FRET signal of each data point was extracted by calculating the 520/490 nm ratios.
# [31] = test system: ACAD9; experiment: TMT proteomics Kelly cells: ACAD9 abundance; type: cell-based, human; settings: 5 h vs DMSO, thalidomide 10 µM
# Excerpt: as §2
# [32] = target: ZNF827 (Homo sapiens, UniProt Q17R98+Q96SW2); experiment: TMT proteomics Kelly cells: ZNF827 abundance; settings: 5 h vs DMSO, thalidomide 10 µM, lenalidomide 5 µM, pomalidomide 1 µM
molecule,measurement,setting,value
_(Strep-BirA)hsSALL4_(402-436) (ZnF2) (from UniProt Q9UJQ4) G416A,response,"[1]; value at the highest lenalidomide dose (log[Len] about -4.4 M), DDB1∆B-CRBN 200 nM, SALL4 ZnF2 100 nM, parent: est. 0.47",0.075 520/490
same,response,"[1]; value at the highest pomalidomide dose (log[Pom] about -4.4 M), DDB1∆B-CRBN 200 nM, SALL4 ZnF2 100 nM, parent: est. 0.97",0.09 520/490
_(Strep-BirA)hsSALL4_(590-618) (ZnF4) (from UniProt Q9UJQ4) Q595H,response,"[1]; value at the highest thalidomide dose (log(Thal) about -4.5 M), DDB1∆B-CRBN 1 µM, SALL4 ZnF4 100 nM, parent: est. 0.27",0.19 520/490
NS(=O)(=O)OC[C@@H]1C[C@@H](n2ccc3c(N[C@H]4CCc5ccccc54)ncnc32)C[C@@H]1O [MLN4924],effect of co-treatment on IMiD-induced SALL4 degradation,[2],abrogated
same,effect of co-treatment on IMiD-induced degradation of targets,[3],abrogated the degradation of all IMiD-dependent targets; also recorded: fully abrogated
O=C1CCC(N2C(=O)c3ccccc3C2=O)C(=O)N1 (stereo not shown) [thalidomide],logFC IKZF1,[4],-0.3052
same,logFC RPS17; RPS17L,[5],-0.1321
same,logFC ZFP91,[6],-0.2749
same,dose found to be teratogenic,[7],400 µM
same,logFC IKZF3,[8],-0.3448
same,plasma concentration in humans,"[9]; ref Bai et al., Dahut et al., 2009",≤ 10 µM
same,Cmax,"[9]; typical dose 200–400 mg thalidomide, 25 mg lenalidomide, 2 mg pomalidomide, ref Chen et al., 2017, Hoffmann et al., Teo et al., 2004, read-out: maximum plasma concentration (Cmax)",5 to 10 µM
same,logFC VRTN,[10],-0.4098
same,SALL4 protein levels (western blot),[11],dose-dependent decrease in SALL4 protein levels
same,logFC PPA1,[12],-0.1282
same,number of substrates identified (rank order),[13]; H9 hESC proteomics,Thal < Len << Pom
same,substrates robustly degraded (each drug in addition to the preceding one),"[13]; proteomics across hESC, MM1s, Kelly, SK-N-DZ cells","ZNF692, SALL4, and the ubiquitin ligase RNF166"
same,logFC RAB28,[14],-0.4948
same,degradation of Flag-SALL4 with G416A or G416N mutations in ZnF2,[15],rendered SALL4 stable
same,degradation of Flag-SALL4 with G600A or G600N mutations in ZnF4,[16],readily degraded
same,SALL4 protein levels (western blot),[17],dose-dependent decrease in protein levels
same,dose found to be teratogenic,[18],400 µM
same,degradation of mmSALL4 with humanized ZnF2 domain,[19],induce thalidomide-mediated mouse SALL4 degradation
same,logFC SALL4,[20],-1.628
same,logFC SALL4,[21],-1.582
same,logFC ZFP91,[22],-0.6875
same,degradation of mmSALL4 in mESC,[23],does not promote degradation of mmSALL4
same,logFC PPP3R1,[24],-0.2263
same,logFC ZNF692,[25],-2.248
same,"SALL4 mRNA level (qPCR, normalized to GAPDH)",[26],upregulates SALL4 mRNA
same,"SALL4 mRNA level (qPCR, normalized to GAPDH)",[26]; listed as Thalidomide,did not influence the expression of SALL4 mRNA
same,degradation of ectopically expressed Flag-hsSALL4 wild type,[27],readily degraded
same,SALL4 degradation in CRBN-/- cells,[28],no degradation of SALL4 was observed
same,logFC CYR61,[29],0.4402
same,rank order in binding observed with ZnF2,[30],Pom >Thal >> Len
same,logFC ACAD9,[31],0.09357
same,logFC ZNF827,[32],-0.4132
